Measurements taken from patent US11014917B2, “5-fluoro-c-(aryl or heterocyclyl)-glycoside derivatives useful as dual SGLT1 / SGLT2 modulators” (Janssen Pharmaceutica NV, priority 2017, dated 2021).

Assays:
human SGLT2 = target: T1, human SGLT2 (Homo sapiens, UniProt P31639); assay: SGLT2 assay: Na-dependent 14C-AMG uptake in CHO-K1 cells stably expressing human SGLT2; assay type: cell-based; conditions: for IC50: average if tested more than once
T1 construct: expressed in transfected cells
T1 sequence (P31639 1-672): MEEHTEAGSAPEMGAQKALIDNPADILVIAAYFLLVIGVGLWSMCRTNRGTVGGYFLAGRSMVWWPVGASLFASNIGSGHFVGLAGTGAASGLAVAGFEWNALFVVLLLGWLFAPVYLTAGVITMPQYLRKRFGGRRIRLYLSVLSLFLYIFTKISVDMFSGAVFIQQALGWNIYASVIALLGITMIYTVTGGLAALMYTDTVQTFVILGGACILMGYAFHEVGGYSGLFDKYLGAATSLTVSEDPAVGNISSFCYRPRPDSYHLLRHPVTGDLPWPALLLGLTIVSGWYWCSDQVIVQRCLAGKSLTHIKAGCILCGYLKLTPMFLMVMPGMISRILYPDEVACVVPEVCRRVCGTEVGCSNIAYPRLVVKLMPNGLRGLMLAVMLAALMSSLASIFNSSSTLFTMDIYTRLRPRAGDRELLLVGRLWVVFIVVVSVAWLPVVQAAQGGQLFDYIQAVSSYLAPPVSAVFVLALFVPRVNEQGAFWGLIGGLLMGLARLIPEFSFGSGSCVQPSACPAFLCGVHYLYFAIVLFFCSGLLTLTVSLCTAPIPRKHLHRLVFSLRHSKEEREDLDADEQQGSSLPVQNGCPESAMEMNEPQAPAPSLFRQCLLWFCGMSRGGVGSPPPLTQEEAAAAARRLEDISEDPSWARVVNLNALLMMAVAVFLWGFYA
Protocol: (§1) The ability of the compounds of formula (I) of the present invention to treat an SGLT-mediated condition was determined using the following procedures:
(§2) SGLT1 and SGLT2 were cloned in form of cDNA from human small intestine (Genbank M24847), and from human kidney (Genbank M95549), respectively. Subsequently, each full cDNA was subcloned into pcDNA with each construct's integrity verified through follow-on sequencing. To generate CHO-K1 cells that stably express human SGLT1 or human SGLT2, CHO-K1 cells were transfected using DMRIE-C reagent (Life Technologies, Gaithersburg, Md.). Transfected cells were then selected in the presence of 500 μg/ml of the Geneticin (G418 Cellgro Catalog No. 30234-Cl)
(§3) Individual clones were then characterized using the following cell-based assay for sodium-dependent glucose transport:
(§4) Inhibition of SGLT1 and SGLT2 activity was assessed in CHO K1 cells stably expressing either human SGLT1 or SGLT2, using the SGLT specific glucose analog methyl-glucopyranoside (Sigma Catalog No. M-9376). Cells were plated (45,000 cells/well) in white wall 96-well plates (COSTAR, Cat #3903) for 24 hours in growth medium, then a final concentration of 10 mM Na-Butyrate (ALDRICH Cat #30341-0) was added. The cells were incubated for 24 hours. On the day of the assay, cells were rinsed and treated with test compounds (at concentrations of 0.001 μM to 10 μM) in assay buffer (50 mM HEPES, 20 mM Tris base, 5 mM KCl, 1 mM MgCl2, 1 mM CaCl2 and 137 mM NaCl, pH 7.4) for 10 minutes. Cells were then incubated with ^14C-a-methyl-d-glucopyranoside (AMG, Amersham Catalog No. CFB 76), using 0.07 μCi per well in 500 μM AMG final concentration. The cells were incubated for 2 hours at 37° C. with 5% CO2 and washed two times with ice-cold Phosphate Buffer Solution (Cellgro Catalog No. 21030-CV). The cells were then solubilized by adding 60 μl of MICROSCINT™20 and the Na-dependent ^14C-AMG uptake was quantified by measuring radioactivity. Plates were counted in a TopCount (Packard, Meriden, Conn.)
(§5) Representative compounds of the present invention were tested according to the procedures as described in Biological Example 1 and 2 above, with results as listed in Table 5, below. Results are reported as the %-inhibition or IC50 value. Variability for the functional assay was typically within 20%.

human SGLT1 = target: T2, human SGLT1 (Homo sapiens, UniProt P13866); assay: SGLT1 assay: Na-dependent 14C-AMG uptake in CHO-K1 cells stably expressing human SGLT1; assay type: cell-based; conditions: for IC50: average if tested more than once
T2 construct: expressed in transfected cells
T2 sequence (P13866 1-664): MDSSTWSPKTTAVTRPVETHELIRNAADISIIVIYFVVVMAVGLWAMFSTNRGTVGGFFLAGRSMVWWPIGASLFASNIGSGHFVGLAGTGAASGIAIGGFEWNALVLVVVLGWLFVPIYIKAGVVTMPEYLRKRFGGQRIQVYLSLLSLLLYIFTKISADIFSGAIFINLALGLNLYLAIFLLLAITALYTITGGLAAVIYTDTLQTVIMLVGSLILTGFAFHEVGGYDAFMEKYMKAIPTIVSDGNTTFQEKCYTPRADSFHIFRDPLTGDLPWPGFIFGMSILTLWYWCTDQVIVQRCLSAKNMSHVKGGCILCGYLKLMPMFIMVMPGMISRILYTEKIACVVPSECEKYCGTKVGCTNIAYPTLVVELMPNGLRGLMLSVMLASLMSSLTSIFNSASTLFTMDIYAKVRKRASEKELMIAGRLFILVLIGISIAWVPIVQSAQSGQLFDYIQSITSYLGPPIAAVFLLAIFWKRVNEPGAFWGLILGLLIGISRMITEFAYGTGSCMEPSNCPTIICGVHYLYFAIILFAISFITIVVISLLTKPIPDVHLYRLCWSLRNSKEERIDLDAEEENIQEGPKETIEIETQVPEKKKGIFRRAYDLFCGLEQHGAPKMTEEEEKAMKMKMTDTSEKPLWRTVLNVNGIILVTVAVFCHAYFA
Protocol: as §1, §2, §3, §4, §5

IC50 (human SGLT2)	IC50 (human SGLT1)	SMILES	further results
3 nM	14 nM	OC[C@H]1O[C@@H](c2cc(Cc3ccc4c(c3)OCCO4)c3c(c2O)CCO3)[C@H](O)[C@@H](O)[C@@H]1F [Compound 61, (2S,3R,4R,5S,6R)-2-(7-((2,3-dihydrobenzo[b][1,4]dioxin-6-yl)methyl)-4-hydroxy-2,3-dihydrobenzofuran-5-yl)-5-fluoro-6-(hydroxymethyl)tetrahydro-2H-pyran-3,4-diol]	–
62 nM	187 nM	COc1c(Cc2ccc3c(c2)SCCO3)cc([C@@H]2O[C@H](CO)[C@@H](F)[C@H](O)[C@H]2O)c2c1CCO2 [Compound 128, (2S,3R,4R,5S,6R)-2-(5-((2,3-dihydrobenzo[b][1,4]oxathiin-6-yl)methyl)-4-methoxy-2,3-dihydrobenzofuran-7-yl)-5-fluoro-6-(hydroxymethyl)-tetrahydro-2H-pyran-3,4-diol]	–
4 nM	128 nM	COc1c([C@@H]2O[C@H](CO)[C@@H](F)[C@H](O)[C@H]2O)cc(Cc2ccc3c(c2)NCCC3)c2c1CCO2 [Compound 105, (2S,3R,4R,5S,6R)-5-fluoro-6-(hydroxymethyl)-2-(4-methoxy-7-((1,2,3,4-tetrahydroquinolin-7-yl)methyl)-2,3-dihydrobenzofuran-5-yl)-tetrahydro-2H-pyran-3,4-diol]	–
11 nM	138 nM	[2H]C([2H])([2H])Oc1cc(CC)c(Cc2ccc3c(c2)OCCO3)cc1[C@@H]1O[C@H](CO)[C@@H](F)[C@H](O)[C@H]1O [Compound 182]	–
13 nM	190 nM	[2H]C1([2H])Oc2ccc(Cc3cc([C@@H]4O[C@H](CO)[C@@H](F)[C@H](O)[C@H]4O)ccc3OC)cc2OC1([2H])[2H] [Compound 173]	–
23 nM	135 nM	Cc1c(Cc2ccc3c(c2)SCCO3)cc([C@@H]2O[C@H](CO)[C@@H](F)[C@H](O)[C@H]2O)c2c1CCO2 [Compound 132]	–
16 nM	56 nM	[2H]C([2H])(c1ccc2c(c1)OCCO2)c1cc([C@@H]2O[C@H](CO)[C@@H](F)[C@H](O)[C@H]2O)c(F)cc1OC [Compound 165]	–

More lines, now with the values behind:

SMILES	IC50 (human SGLT2)	IC50 (human SGLT1)	further results
COc1cc(C)c(Cc2cc3c(s2)CCN(C(=O)N2CCCC2)C3)cc1[C@@H]1O[C@H](CO)[C@@H](F)[C@H](O)[C@H]1O [Compound 81]	11 nM	223 nM	–
CCc1cc(O)c([C@@H]2O[C@H](CO)[C@@H](F)[C@H](O)[C@H]2O)cc1Cc1cc2c(s1)CCN(C#N)C2 [Compound 118]	2 nM	50 nM	–
COc1cc(O)c(C2OC(C(C)O)C(F)C(O)C2O)cc1Cc1cc2ccccc2s1 (single isomer, unassigned) [Compound 53]	26 nM	104 nM	–
Cc1cc(O)c([C@@H]2O[C@H](CO)[C@@H](F)[C@H](O)[C@H]2O)cc1Cc1cc2c(s1)CCN(C(=O)N1CCCC1)C2 [Compound 66, (2-(5-((2S,3R,4R,5S,6R)-5-fluoro-3,4-dihydroxy-6-(hydroxymethyl)tetrahydro-2H-pyran-2-yl)-4-hydroxy-2-methylbenzyl)-6,7-dihydrothieno[3,2-c]pyridin-5(4H)-yl)(pyrrolidin-1-yl)methanone]	14 nM	40 nM	–
Cc1cc(O)c([C@@H]2O[C@H](CO)[C@@H](F)[C@H](O)[C@H]2O)cc1Cc1cc2c(s1)CCN(C(=O)c1nccs1)C2 [Compound 84, (2-(5-((2S,3R,4R,5S,6R)-5-fluoro-3,4-dihydroxy-6-(hydroxymethyl)-tetrahydro-2H-pyran-2-yl)-4-hydroxy-2-methylbenzyl)-6,7-dihydrothieno[3,2-c]pyridin-5(4H)-yl)(thiazol-2-yl)methanone]	36 nM	101 nM	–
COc1ccc([C@@H]2O[C@H](CO)[C@@H](F)[C@H](O)[C@H]2O)cc1Cc1cc2c(s1)CCN(C#N)C2 [Compound 120]	–	–	SGLT2 %-inhibition (human SGLT2; @ 0.3 μM): 54.7% @ 0.3 μM; SGLT1 %-inhibition (human SGLT1; @ 0.3 μM): 6.6% @ 0.3 μM
COC(=O)N1CCc2sc(Cc3cc([C@@H]4O[C@H](CO)[C@@H](F)[C@H](O)[C@H]4O)c(OC)cc3OC)cc2C1 [Compound 83]	–	–	SGLT2 %-inhibition (human SGLT2; @ 0.3 μM): 72.3% @ 0.3 μM; SGLT1 %-inhibition (human SGLT1; @ 0.3 μM): 17.4% @ 0.3 μM
Cc1c(Cc2cc3ccccc3s2)cc([C@@H]2O[C@H](CO)[C@@H](F)[C@H](O)[C@H]2O)c(O)c1C [Compound 13]	7 nM	15 nM	–
COc1c(Cc2cc3ccccc3s2)cc([C@@H]2O[C@H](CO)[C@@H](F)[C@H](O)[C@H]2O)c(O)c1C [Compound 14]	–	–	SGLT2 %-inhibition (human SGLT2; @ 0.3 μM): 36.0% @ 0.3 μM; SGLT1 %-inhibition (human SGLT1; @ 0.3 μM): 69.3% @ 0.3 μM
COc1cc(CO)c([C@@H]2O[C@H](CO)[C@@H](F)[C@H](O)[C@H]2O)cc1Cc1cc2ccccc2s1 [Compound 34]	–	–	SGLT2 %-inhibition (human SGLT2; @ 0.3 μM): 27.6% @ 0.3 μM; SGLT1 %-inhibition (human SGLT1; @ 0.3 μM): 38.6% @ 0.3 μM
CCc1cc(O)c([C@@H]2O[C@H](CO)[C@@H](F)[C@H](O)[C@H]2O)cc1Cc1cc2ccccc2s1 [Compound 31]	19 nM	9 nM	–
COC(=O)N1CCc2sc(Cc3cc([C@@H]4O[C@H](CO)[C@@H](F)[C@H](O)[C@H]4O)c(O)cc3Cl)cc2C1 [Compound 73]	48 nM	240 nM	–
COc1cc(C)c(Cc2cc3c(s2)CCN(c2ncc(C)s2)C3)cc1[C@@H]1O[C@H](CO)[C@@H](F)[C@H](O)[C@H]1O [Compound 123]	100 nM	1360 nM	–
CC1(C)Oc2c(Cc3ccc4c(c3)OCCO4)cc([C@@H]3O[C@H](CO)[C@@H](F)[C@H](O)[C@H]3O)cc2C1CO (stereo partly shown) [Compound 85]	–	–	SGLT2 %-inhibition (human SGLT2; @ 0.3 μM): 10.1% @ 0.3 μM; SGLT1 %-inhibition (human SGLT1; @ 0.3 μM): 37.4% @ 0.3 μM
OCC1COc2c(Cc3ccc4c(c3)OCCO4)cc([C@@H]3O[C@H](CO)[C@@H](F)[C@H](O)[C@H]3O)cc21 (stereo partly drawn) [Compound 75, (2S,3R,4R,5S,6R)-2-(7-((2,3-dihydrobenzo[b][1,4]dioxin-6-yl)methyl)-3-(hydroxymethyl)-2,3-dihydrobenzofuran-5-yl)-5-fluoro-6-(hydroxymethyl)-tetrahydro-2H-pyran-3,4-diol]	–	–	inhibition at 0.3 µM (human SGLT2; @ 0.3 μM): 43.7%; inhibition at 0.3 µM (human SGLT1; @ 0.3 μM): 61.9%
COc1cc(O)c(C2OC(C(C)O)C(F)C(O)C2O)cc1Cc1cc2ccccc2s1 (single isomer, unassigned) [Compound 52]	9 nM	15 nM	–
